We go through five compounds from article PMC6270991, “Design and Synthesis of Thiazolo[5,4-f]quinazolines as DYRK1A Inhibitors, Part I” (Molecules, 2014).

The target in one data set is DYRK1A (Rattus norvegicus, UniProt Q63470). Description: DYRK1A in vitro kinase assay (33P-ATP, Woodtide substrate). It is filed as biochemical. The protocol: (§1) Buffer A: MgCl2 (10 mM), 1 mM ethylene glycol-bis(2-aminoethylether)-N,N,N',N'-tetraacetic acid (EGTA), 1 mM dithiothreitol (DTT), 25 mM Tris-HCl pH 7.5, 50 μg heparin/mL.
(§2) Controls were performed with appropriate dilutions of dimethylsulfoxide (DMSO). IC50 values were calculated from dose-response curves established by Sigma-Plots. The GSK-3, CK1, DYRK1A and CLK1 peptide substrates were obtained from Proteogenix (Oberhausbergen, France).
(§3) CDK5/p25. (Human, recombinant) was prepared as previously described. […] ATP (3000 Ci/mmol; 10 mCi/mL) in a final volume of 30 μL. After 30 min incubation at 30 °C, 25 μL aliquots of supernatant were spotted onto sheets of Whatman P81 phosphocellulose paper, and 20 s later, the filters were washed eight times (for at least 5 min each time) in a solution of 10 mL phosphoric acid/L of water. The wet filters were counted in the presence of 1 mL ACS (Amersham) scintillation fluid.

The target of another data set is CK1δ/ε. The data set is described as follows: CK1δ/ε in vitro kinase assay (33P-ATP, CK1-specific peptide substrate). The note with it: 15 μM ATP, 30 min at 30 °C, triplicate; <50% inhibition at 10 µM reported as >10. The data set is classed as biochemical, Porcine. On the procedure: as §2, §3
CK1δ/ε. (Porcine brain, native) was assayed as described for CDK5/p25, but using the CK1-specific peptide substrate […]pSAYSITA [23].

Another data set addresses T1, CDK5/p25 (Homo sapiens, UniProt Q00535).
T1 construct: made in house
Description: CDK5/p25 in vitro kinase assay (33P-ATP, histone H1). The note with it: read-out: CDK5 IC50. The data set is classed as biochemical. The protocol:
as §1, §2, §3

The next data set has as its target GSK-3α/β. Description: GSK-3α/β in vitro kinase assay (33P-ATP, GS-1 peptide). It is filed as biochemical, Porcine. The note with it: 15 μM ATP, 30 min at 30 °C, triplicate; <50% inhibition at 10 µM reported as >10; read-out: GSK3 IC50. On the procedure: as §1, §2, §3
GSK-3α/β. (Porcine brain, native) was assayed as described for CDK5/p25, but in buffer A and using a GSK-3 specific substrate (GS-1: […]pSEDEEE) (pS stands for phosphorylated serine).

[1] abbreviates: 15 μM ATP, 30 min at 30 °C, triplicate, <50% inhibition at 10 µM reported as >10.

Where two headings read alike, the source gives them in different places. Where only a bound is given, the exact number is not on record here.

T1 sequence (Q00535 whole entry): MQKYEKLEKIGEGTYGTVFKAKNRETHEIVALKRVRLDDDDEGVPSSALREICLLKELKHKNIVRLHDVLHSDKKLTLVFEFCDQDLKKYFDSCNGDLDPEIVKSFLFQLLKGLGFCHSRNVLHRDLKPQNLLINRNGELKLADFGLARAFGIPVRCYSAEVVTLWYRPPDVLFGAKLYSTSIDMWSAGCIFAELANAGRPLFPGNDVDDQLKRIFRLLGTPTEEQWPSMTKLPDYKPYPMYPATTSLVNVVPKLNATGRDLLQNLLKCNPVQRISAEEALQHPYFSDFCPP
T1 sequence (Q15078 99-307 partner limits assumed): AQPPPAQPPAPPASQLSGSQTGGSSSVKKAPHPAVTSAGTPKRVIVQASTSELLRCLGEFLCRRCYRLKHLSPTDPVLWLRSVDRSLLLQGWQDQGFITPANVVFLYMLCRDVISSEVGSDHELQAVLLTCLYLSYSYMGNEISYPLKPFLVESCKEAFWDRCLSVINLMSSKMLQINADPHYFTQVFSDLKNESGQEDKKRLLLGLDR

For the compound `N#Cc1nc2ccc3ncnc(Nc4ccc(F)c(Cl)c4)c3c2s1` [Compound 10, 9-(3-Chloro-4-fluorophenylamino)thiazolo[5,4-f]quinazoline-2-carbonitrile], the melting point was 252 °C. This compound also came in with an IC50 on DYRK1A greater than 10 µM. At CK1δ/ε, this compound displayed an IC50 greater than 10 µM. Further, the IC50 on CDK5/p25 is greater than 10 µM. Moreover, the IC50 at GSK-3α/β is greater than 10 µM.

Consider `N#Cc1nc2ccc3ncnc(Nc4ccc5c(c4)OCO5)c3c2s1` [Compound 8, 9-(Benzo[d][1,3]dioxol-5-ylamino)thiazolo[5,4-f]quinazoline-2-carbonitrile], for which the melting point was greater than 260 °C. This compound also had an IC50 on DYRK1A greater than 10 µM. Also, on CK1δ/ε, the IC50 was greater than 10 µM. In addition, on CDK5/p25, the IC50 is greater than 10 µM. For the same compound, the IC50 on GSK-3α/β was greater than 10 µM.

Consider `COc1ccc(Nc2ncnc3ccc4nc(C#N)sc4c23)cc1` [Compound 7, 9-(4-Methoxyphenylamino)thiazolo[5,4-f]quinazoline-2-carbonitrile], for which the melting point is greater than 260 °C. On DYRK1A, this compound showed a half-inhibitory concentration (IC50) greater than 10 µM. The concentration for half-maximal inhibition (IC50) against CK1δ/ε was greater than 10 µM. The IC50 at CDK5/p25 was greater than 10 µM. Further, the IC50 at GSK-3α/β is greater than 10 µM.

`N#Cc1nc2ccc3ncnc(Nc4ccc(Br)cc4F)c3c2s1` [Compound 9, 9-(4-Bromo-2-fluorophenylamino)thiazolo[5,4-f]quinazoline-2-carbonitrile] returned a melting point greater than 260 °C. On DYRK1A, this compound yielded an IC50 greater than 10 µM. The compound further came in with an IC50 at CK1δ/ε greater than 10 µM. Besides, the IC50 at CDK5/p25 is greater than 10 µM. Besides, the half-inhibitory concentration (IC50) on GSK-3α/β was greater than 10 µM.

For the compound `N=C(NCCN1CCCCC1)c1nc2ccc3ncnc(Nc4ccc(F)c(Cl)c4)c3c2s1` [Compound 10b, 9-(3-Chloro-4-fluorophenylamino)-N-(2-(piperidin-1-yl)ethyl)thiazolo[5,4-f]quinazoline-2-carboxi-midamide], the IC50 at DYRK1A (setting [1]) was greater than 10 µM; on CK1δ/ε, greater than 10 µM; on CDK5/p25 (setting [1]), greater than 10 µM; at GSK-3α/β, 1.4 µM.
